Reference: ChEMBL document CHEMBL1133031, “Salicylamide inhibitors of influenza virus fusion” (Bioorg Med Chem Lett, 2000)
≈ marks a conversion by molar mass, not a printed value.

What was measured:
[1] = Tested for activity against A/WSN/33 influenza strain-induced toxicity in MDBK cells by using cell protection assay; format: functional, organism-based
[2] = The cytotoxic activity was evaluated in MDBK cells; format: functional; conditions: Bos taurus
[3] = Tested for activity against A/WSN/33 influenza strain-induced toxicity in MDBK cells by using cell protection assay; Not active; format: functional, organism-based
[4] = The compound was tested for activity against A/WSN/33 influenza strain-induced toxicity in MDBK cells by using cell protection assay; Not active at 50 ug/mL; format: functional, cell-based, Bos taurus

Q: What does the source list for Cc1ccc(O)c(C(=O)NCCCCN2[C@H](C)CCC[C@@H]2C)c1?
A: EC50 [1]: 0.7 µg/mL (≈ 2.2 µM); CC50 [2]: > 100 µg/mL

Q: With Cc1ccc(O)c(C(=O)NCCCCN2CCC[C@@H]3CCCC[C@@H]32)c1 as the compound, how does the EC50 [3] read?
A: Its EC50 is “Not Active”.

Q: And the CC50 [2]?
A: The CC50 was 30 µg/mL (≈ 87.1 µM).

Q: For O=C(NCCCN1CCC[C@@H]2CCCC[C@H]21)c1cc(Cl)ccc1O, which EC50 [1] is on record?
A: Its EC50 is 1.4 µg/mL (≈ 3.99 µM).

Q: And the CC50 [2]?
A: The CC50 was 45 µg/mL (≈ 128 µM).

Q: What does the source list for CN1C2CCC1CC(NC(=O)c1cc(Cl)ccc1O)C2 (centres undefined)?
A: EC50 [3]: Not Active; CC50 [2]: 100 µg/mL (≈ 339 µM)

Q: With Cc1ccc(O)c(C(=O)NCCCN2CCC[C@@H]3CCCC[C@@H]32)c1 as the compound, how does the EC50 [1] read?
A: Its EC50 is 0.65 µg/mL (≈ 1.97 µM).

Q: And the CC50 [2]?
A: The CC50 was > 100 µg/mL.

Q: Which results are given for C[C@@H]1CCC[C@@H]2C[C@@H](NC(=O)c3cc(Cl)ccc3O)CCN21?
A: EC50 [1]: 0.8 µg/mL (≈ 2.48 µM); CC50 [2]: > 200 µg/mL

Q: For C[C@@H]1CCC[C@H](C)N1CCCCNC(=O)c1cc(Cl)ccc1O, which EC50 [1] is on record?
A: The EC50 was 1 µg/mL (≈ 2.95 µM).

Q: And the CC50 [2]?
A: The CC50 was 100 µg/mL (≈ 295 µM).

Q: Which results are given for Cc1ccc(O)c(C(=O)NCCCN2CCC[C@@H]3CCCC[C@H]32)c1?
A: EC50 [1]: 0.35 µg/mL (≈ 1.06 µM); CC50 [2]: 60 µg/mL (≈ 182 µM)

Q: With Cc1ccc(O)c(C(=O)NCCCN2[C@H](C)CCC[C@@H]2C)c1 as the compound, how does the EC50 [1] read?
A: Its EC50 is 1.8 µg/mL (≈ 5.91 µM).

Q: And the CC50 [2]?
A: Its CC50 is > 100 µg/mL.

Q: With CC1CC[C@@H]2CCCC[C@@H]2N1CCCNC(=O)c1cc(Cl)ccc1O (some centres undefined) as the compound, how does the EC50 [1] read?
A: Its EC50 is 0.09 µg/mL (≈ 0.247 µM).

Q: What about the CC50 [2] of the same compound?
A: The CC50 was 40 µg/mL (≈ 110 µM).

Q: What does the source list for Cc1ccc(O)c(C(=O)NC2CC3CCC(C2)N3C)c1 (centres undefined)?
A: EC50 [3]: Not Active; CC50 [2]: 100 µg/mL (≈ 364 µM)

Q: What does the source list for Cc1ccc(O)c(C(=O)NCCCCN2C(C)CC[C@@H]3CCCC[C@@H]32)c1 (some centres undefined)?
A: EC50 [3]: Not Active; CC50 [2]: 90 µg/mL (≈ 251 µM)

Q: For Cc1ccc(O)c(C(=O)NCCCN2C(C)CC[C@@H]3CCCC[C@H]32)c1 (single isomer, unassigned), which EC50 [1] is on record?
A: The EC50 was 1.5 µg/mL (≈ 4.35 µM).

Q: And the CC50 [2]?
A: The CC50 was 30 µg/mL (≈ 87.1 µM).

Q: Which EC50 [1] does the source give for Cc1ccc(O)c(C(=O)NCCCN2[C@H](C)CC[C@@H]3CCCC[C@@H]32)c1 here?
A: The EC50 was 0.19 µg/mL (≈ 0.552 µM).

Q: And the CC50 [2]?
A: The CC50 was 35 µg/mL (≈ 102 µM).

Q: Which EC50 [3] does the source give for Cc1ccc(O)c(C(=O)NCCCN2CC(C)C[C@@H]3CCCC[C@@H]32)c1 (some centres undefined) here?
A: Its EC50 is “Not Active”.

Q: And the CC50 [2]?
A: The CC50 was 9.5 µg/mL (≈ 27.6 µM).

Q: For Cc1ccc(O)c(C(=O)NCCCN2[C@@H](C)CC[C@@H]3CCCC[C@@H]32)c1, which EC50 [1] is on record?
A: Its EC50 is 6 µg/mL (≈ 17.4 µM).

Q: What about the CC50 [2] of the same compound?
A: Its CC50 is > 100 µg/mL.

Q: For CCC(C)N1CCC(NC(=O)c2cc(C)ccc2O)CC1 (centres undefined), which EC50 [4] is on record?
A: Its EC50 is “Not Active”.

Q: And the CC50 [2]?
A: The CC50 was 100 µg/mL (≈ 344 µM).

Q: With Cc1ccc(O)c(C(=O)NCCCN2C(C(C)C)CC[C@@H]3CCCC[C@@H]32)c1 (some centres undefined) as the compound, how does the EC50 [1] read?
A: The EC50 was 0.25 µg/mL (≈ 0.671 µM).

Q: And the CC50 [2]?
A: Its CC50 is 80 µg/mL (≈ 215 µM).

Q: For O=C(NCCCN1CCC[C@@H]2CCCC[C@@H]21)c1cc(Cl)ccc1O, which EC50 [1] is on record?
A: Its EC50 is 1.4 µg/mL (≈ 3.99 µM).

Q: And the CC50 [2]?
A: The CC50 was 43 µg/mL (≈ 123 µM).

Q: Which EC50 [1] does the source give for C[C@@H]1CCC[C@H](C)N1CCCNC(=O)c1cc(Cl)ccc1O here?
A: Its EC50 is 4.5 µg/mL (≈ 13.9 µM).

Q: What about the CC50 [2] of the same compound?
A: Its CC50 is 30 µg/mL (≈ 92.3 µM).

Q: For Cc1ccc(O)c(C(=O)NCCCN2CCC(C)[C@@H]3CCCC[C@@H]32)c1 (some centres undefined), which EC50 [3] is on record?
A: Its EC50 is “Not Active”.

Q: What about the CC50 [2] of the same compound?
A: The CC50 was 100 µg/mL (≈ 290 µM).

Q: Which EC50 [1] does the source give for Cc1ccc(O)c(C(=O)NCCCN(C(C)C)C(C)C)c1 here?
A: The EC50 was 0.9 µg/mL (≈ 3.08 µM).

Q: What about the CC50 [2] of the same compound?
A: Its CC50 is > 100 µg/mL.
